Data taken from ChEMBL document CHEMBL4507266, “Data for DCP probe BAY-784” (2021).

Experiments:
[1] = molecular target: Neuropeptide Y receptor type 2 (Homo sapiens) (UniProt P49146); test: Inhibition of Neuropeptide Y Y2 at 10 µM in the Eurofins-Panlabs radioligand binding assay (Eurofins_assay_257110); details: Compound concentration 10.0 uM
[2] = tested on: Bacteria; test: Inhibition of Beta-Lactamase at 10 µM in the Eurofins-Panlabs enzyme assay (Eurofins_assay_126000); assay type: protein-complex assay; set-up: substrate with concentration; details: Compound concentration 10.0 uM
[3] = molecular target: Melanocortin receptor 5 (Homo sapiens) (UniProt P33032); test: Inhibition of Melanocortin MC5 at 10 µM in the Eurofins-Panlabs radioligand binding assay (Eurofins_assay_251400); set-up: ligand concentration 0.035 nM; details: Compound concentration 10.0 uM
[4] = tested on: Tyrosine-protein kinase ABL1 (Homo sapiens), P00519 [M351T]; details: Compound concentration 1000.0 nM
[5] = molecular target: Activin receptor type-1B (Homo sapiens) (UniProt P36896); details: Compound concentration 1000.0 nM
Chain of Activin receptor type-1B (Homo sapiens) (P36896 whole entry): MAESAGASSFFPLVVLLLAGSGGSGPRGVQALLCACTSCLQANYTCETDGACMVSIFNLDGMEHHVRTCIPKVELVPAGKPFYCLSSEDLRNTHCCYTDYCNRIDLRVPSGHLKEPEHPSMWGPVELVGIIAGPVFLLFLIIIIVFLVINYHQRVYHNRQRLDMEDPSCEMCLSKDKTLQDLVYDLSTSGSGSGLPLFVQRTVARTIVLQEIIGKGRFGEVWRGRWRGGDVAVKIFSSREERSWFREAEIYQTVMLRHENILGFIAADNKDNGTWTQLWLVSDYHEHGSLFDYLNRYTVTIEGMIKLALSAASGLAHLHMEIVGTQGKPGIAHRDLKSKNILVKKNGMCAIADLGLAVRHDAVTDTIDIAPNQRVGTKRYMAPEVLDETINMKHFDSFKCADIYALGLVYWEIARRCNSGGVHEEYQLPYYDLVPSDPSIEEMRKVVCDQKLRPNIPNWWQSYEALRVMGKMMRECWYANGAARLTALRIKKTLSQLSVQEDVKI

[6] = molecular target: Activin receptor type-1-like (Homo sapiens) (UniProt P37023); details: Compound concentration 1000.0 nM
Chain of Activin receptor type-1-like (Homo sapiens) (P37023 whole entry): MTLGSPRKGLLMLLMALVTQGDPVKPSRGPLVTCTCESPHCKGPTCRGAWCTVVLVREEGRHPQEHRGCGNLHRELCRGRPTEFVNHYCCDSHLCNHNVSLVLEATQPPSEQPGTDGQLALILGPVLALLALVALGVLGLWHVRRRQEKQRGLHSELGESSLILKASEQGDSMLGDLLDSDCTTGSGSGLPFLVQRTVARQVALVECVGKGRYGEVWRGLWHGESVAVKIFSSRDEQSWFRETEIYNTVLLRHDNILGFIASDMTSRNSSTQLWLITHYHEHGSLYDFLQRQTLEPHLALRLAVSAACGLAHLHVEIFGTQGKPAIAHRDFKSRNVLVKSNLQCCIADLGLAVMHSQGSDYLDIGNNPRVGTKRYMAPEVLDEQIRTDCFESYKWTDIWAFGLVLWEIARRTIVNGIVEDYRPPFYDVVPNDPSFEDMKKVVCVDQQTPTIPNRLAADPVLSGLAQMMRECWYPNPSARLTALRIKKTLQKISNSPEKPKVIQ

[7] = molecular target: ALK tyrosine kinase receptor (Homo sapiens) (UniProt Q9UM73); details: Compound concentration 1000.0 nM
Chain of ALK tyrosine kinase receptor (Homo sapiens) (Q9UM73 19-1620 limits assumed): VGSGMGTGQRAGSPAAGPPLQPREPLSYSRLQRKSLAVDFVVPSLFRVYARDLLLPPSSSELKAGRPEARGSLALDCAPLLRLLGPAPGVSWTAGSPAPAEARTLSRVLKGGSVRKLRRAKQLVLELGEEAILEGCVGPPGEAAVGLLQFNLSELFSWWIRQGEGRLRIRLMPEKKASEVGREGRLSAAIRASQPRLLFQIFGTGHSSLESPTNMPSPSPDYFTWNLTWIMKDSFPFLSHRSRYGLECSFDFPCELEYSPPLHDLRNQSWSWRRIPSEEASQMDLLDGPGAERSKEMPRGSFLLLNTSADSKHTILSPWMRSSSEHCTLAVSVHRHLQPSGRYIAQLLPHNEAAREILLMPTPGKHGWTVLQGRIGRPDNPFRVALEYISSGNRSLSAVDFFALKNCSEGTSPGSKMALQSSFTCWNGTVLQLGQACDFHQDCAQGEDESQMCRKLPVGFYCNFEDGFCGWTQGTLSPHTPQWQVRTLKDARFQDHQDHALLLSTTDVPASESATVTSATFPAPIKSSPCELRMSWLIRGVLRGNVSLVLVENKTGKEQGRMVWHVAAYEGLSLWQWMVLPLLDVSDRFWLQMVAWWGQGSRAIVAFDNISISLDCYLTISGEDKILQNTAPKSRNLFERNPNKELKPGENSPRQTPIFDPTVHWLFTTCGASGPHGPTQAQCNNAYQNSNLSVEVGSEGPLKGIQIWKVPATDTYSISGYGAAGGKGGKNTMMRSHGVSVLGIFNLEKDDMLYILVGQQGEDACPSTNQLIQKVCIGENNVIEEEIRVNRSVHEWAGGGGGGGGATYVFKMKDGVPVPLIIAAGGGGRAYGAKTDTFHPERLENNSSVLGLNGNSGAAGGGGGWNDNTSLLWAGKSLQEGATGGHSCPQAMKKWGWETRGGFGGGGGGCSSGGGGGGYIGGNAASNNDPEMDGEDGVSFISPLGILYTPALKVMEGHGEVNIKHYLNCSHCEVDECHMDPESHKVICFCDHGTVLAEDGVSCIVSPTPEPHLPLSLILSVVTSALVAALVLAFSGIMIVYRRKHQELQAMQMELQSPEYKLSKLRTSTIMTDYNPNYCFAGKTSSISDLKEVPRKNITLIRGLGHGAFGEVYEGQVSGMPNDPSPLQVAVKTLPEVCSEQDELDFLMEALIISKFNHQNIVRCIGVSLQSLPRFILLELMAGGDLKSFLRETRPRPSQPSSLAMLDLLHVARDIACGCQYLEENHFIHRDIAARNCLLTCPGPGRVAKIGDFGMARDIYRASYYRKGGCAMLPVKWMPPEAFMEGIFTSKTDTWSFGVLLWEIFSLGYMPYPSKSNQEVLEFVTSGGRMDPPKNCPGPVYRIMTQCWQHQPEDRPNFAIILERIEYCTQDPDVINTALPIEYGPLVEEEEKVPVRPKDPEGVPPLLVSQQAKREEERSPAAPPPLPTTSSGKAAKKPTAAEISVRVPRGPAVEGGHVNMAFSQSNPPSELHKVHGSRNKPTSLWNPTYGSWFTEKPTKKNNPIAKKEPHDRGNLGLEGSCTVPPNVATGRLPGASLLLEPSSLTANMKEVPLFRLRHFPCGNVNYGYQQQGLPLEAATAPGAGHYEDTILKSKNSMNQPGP

[8] = molecular target: Bone morphogenetic protein receptor type-1B (Homo sapiens) (UniProt O00238); details: Compound concentration 1000.0 nM
[9] = molecular target: Cytoplasmic tyrosine-protein kinase BMX (Homo sapiens) (UniProt P51813); details: Compound concentration 1000.0 nM
[10] = molecular target: Calcium/calmodulin-dependent protein kinase type II subunit gamma (Homo sapiens) (UniProt Q13555); details: Compound concentration 1000.0 nM
[11] = molecular target: Dual specificity tyrosine-phosphorylation-regulated kinase 2 (Homo sapiens) (UniProt Q92630); details: Compound concentration 1000.0 nM
[12] = tested on: Epidermal growth factor receptor (Homo sapiens), P00533 [UNDEFINED MUTATION]; details: Compound concentration 1000.0 nM
Chain of Epidermal growth factor receptor (Homo sapiens), P00533 [UNDEFINED MUTATION] (P00533 whole entry, looked up, change not shown): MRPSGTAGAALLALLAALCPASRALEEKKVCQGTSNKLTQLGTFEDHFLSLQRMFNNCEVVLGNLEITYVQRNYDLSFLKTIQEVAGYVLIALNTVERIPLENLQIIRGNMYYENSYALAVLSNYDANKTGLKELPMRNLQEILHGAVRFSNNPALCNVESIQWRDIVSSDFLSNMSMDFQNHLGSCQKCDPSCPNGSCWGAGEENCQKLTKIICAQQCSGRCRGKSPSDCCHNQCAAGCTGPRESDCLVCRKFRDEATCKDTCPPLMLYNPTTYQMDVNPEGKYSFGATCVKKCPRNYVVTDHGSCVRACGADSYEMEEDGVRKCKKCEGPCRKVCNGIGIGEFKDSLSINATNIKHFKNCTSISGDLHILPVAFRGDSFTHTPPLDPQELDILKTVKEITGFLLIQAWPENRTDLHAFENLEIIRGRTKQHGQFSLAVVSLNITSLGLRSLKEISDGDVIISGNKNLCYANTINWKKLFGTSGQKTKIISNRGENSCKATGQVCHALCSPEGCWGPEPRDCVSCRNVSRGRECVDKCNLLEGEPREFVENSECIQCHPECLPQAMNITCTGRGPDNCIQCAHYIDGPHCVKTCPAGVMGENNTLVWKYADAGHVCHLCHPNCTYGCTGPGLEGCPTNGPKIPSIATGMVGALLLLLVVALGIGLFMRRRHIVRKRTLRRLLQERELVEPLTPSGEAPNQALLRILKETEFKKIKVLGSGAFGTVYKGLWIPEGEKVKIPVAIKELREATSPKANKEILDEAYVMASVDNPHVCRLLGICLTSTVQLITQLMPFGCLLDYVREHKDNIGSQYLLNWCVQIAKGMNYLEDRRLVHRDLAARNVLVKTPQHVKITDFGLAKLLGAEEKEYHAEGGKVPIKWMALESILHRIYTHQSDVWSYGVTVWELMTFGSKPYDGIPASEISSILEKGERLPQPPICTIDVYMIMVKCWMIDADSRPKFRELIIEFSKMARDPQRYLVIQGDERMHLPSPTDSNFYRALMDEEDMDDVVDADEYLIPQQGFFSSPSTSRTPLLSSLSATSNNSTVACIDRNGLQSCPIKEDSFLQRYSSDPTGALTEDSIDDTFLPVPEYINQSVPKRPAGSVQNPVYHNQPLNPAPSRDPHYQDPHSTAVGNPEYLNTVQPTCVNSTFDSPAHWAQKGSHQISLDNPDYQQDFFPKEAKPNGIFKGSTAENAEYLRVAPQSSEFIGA

[13] = tested on: Epidermal growth factor receptor (Homo sapiens), P00533 [UNDEFINED MUTATION]; details: Compound concentration 1000.0 nM; remark: listed apart in the source
[14] = molecular target: Ephrin type-B receptor 2 (Homo sapiens) (UniProt P29323); details: Compound concentration 1000.0 nM
[15] = molecular target: Tyrosine-protein kinase Fyn (Homo sapiens) (UniProt P06241); details: Compound concentration 1000.0 nM
[16] = tested on: Mast/stem cell growth factor receptor Kit (Homo sapiens), P10721 [D816V]; details: Compound concentration 1000.0 nM
[17] = molecular target: Serine/threonine-protein kinase 10 (Homo sapiens) (UniProt O94804); details: Compound concentration 1000.0 nM
[18] = molecular target: MAP kinase-activated protein kinase 5 (Homo sapiens) (UniProt Q8IW41); details: Compound concentration 1000.0 nM
[19] = molecular target: MAP/microtubule affinity-regulating kinase 4 (Homo sapiens) (UniProt Q96L34); details: Compound concentration 1000.0 nM
[20] = molecular target: Serine/threonine-protein kinase 3 (Homo sapiens) (UniProt Q13188); details: Compound concentration 1000.0 nM
[21] = molecular target: Serine/threonine-protein kinase Nek2 (Homo sapiens) (UniProt P51955); details: Compound concentration 1000.0 nM
[22] = molecular target: Serine/threonine-protein kinase Nek6 (Homo sapiens) (UniProt Q9HC98); details: Compound concentration 1000.0 nM
[23] = molecular target: Serine/threonine-protein kinase Nek7 (Homo sapiens) (UniProt Q8TDX7); details: Compound concentration 1000.0 nM
[24] = molecular target: Platelet-derived growth factor receptor beta (Homo sapiens) (UniProt P09619); details: Compound concentration 1000.0 nM
[25] = tested on: Phosphatidylinositol 4,5-bisphosphate 3-kinase catalytic subunit alpha isoform (Homo sapiens), P42336 [E545A]; details: Compound concentration 1000.0 nM
[26] = tested on: Phosphatidylinositol 4,5-bisphosphate 3-kinase catalytic subunit alpha isoform (Homo sapiens), P42336 [I800L]; details: Compound concentration 1000.0 nM
[27] = molecular target: Serine/threonine-protein kinase pim-2 (Homo sapiens) (UniProt Q9P1W9); details: Compound concentration 1000.0 nM
[28] = molecular target: Serine/threonine-protein kinase pim-3 (Homo sapiens) (UniProt Q86V86); details: Compound concentration 1000.0 nM
[29] = molecular target: Serine/threonine-protein kinase D1 (Homo sapiens) (UniProt Q15139); details: Compound concentration 1000.0 nM
[30] = molecular target: Serine/threonine-protein kinase RIO2 (Homo sapiens) (UniProt Q9BVS4); details: Compound concentration 1000.0 nM
[31] = molecular target: Serine/threonine-protein kinase RIO3 (Homo sapiens) (UniProt O14730); details: Compound concentration 1000.0 nM
[32] = molecular target: Receptor-interacting serine/threonine-protein kinase 4 (Homo sapiens) (UniProt P57078); details: Compound concentration 1000.0 nM
[33] = molecular target: Ribosomal protein S6 kinase alpha-1 (Homo sapiens) (UniProt Q15418); details: Compound concentration 1000.0 nM
[34] = molecular target: SRSF protein kinase 1 (Homo sapiens) (UniProt Q96SB4); details: Compound concentration 1000.0 nM
[35] = molecular target: Tyrosine-protein kinase receptor Tie-1 (Homo sapiens) (UniProt P35590); details: Compound concentration 1000.0 nM
[36] = molecular target: Testis-specific serine/threonine-protein kinase 3 (Homo sapiens) (UniProt Q96PN8); details: Compound concentration 1000.0 nM
[37] = molecular target: Dual specificity protein kinase TTK (Homo sapiens) (UniProt P33981); details: Compound concentration 1000.0 nM
Chain of Dual specificity protein kinase TTK (Homo sapiens) (P33981 whole entry): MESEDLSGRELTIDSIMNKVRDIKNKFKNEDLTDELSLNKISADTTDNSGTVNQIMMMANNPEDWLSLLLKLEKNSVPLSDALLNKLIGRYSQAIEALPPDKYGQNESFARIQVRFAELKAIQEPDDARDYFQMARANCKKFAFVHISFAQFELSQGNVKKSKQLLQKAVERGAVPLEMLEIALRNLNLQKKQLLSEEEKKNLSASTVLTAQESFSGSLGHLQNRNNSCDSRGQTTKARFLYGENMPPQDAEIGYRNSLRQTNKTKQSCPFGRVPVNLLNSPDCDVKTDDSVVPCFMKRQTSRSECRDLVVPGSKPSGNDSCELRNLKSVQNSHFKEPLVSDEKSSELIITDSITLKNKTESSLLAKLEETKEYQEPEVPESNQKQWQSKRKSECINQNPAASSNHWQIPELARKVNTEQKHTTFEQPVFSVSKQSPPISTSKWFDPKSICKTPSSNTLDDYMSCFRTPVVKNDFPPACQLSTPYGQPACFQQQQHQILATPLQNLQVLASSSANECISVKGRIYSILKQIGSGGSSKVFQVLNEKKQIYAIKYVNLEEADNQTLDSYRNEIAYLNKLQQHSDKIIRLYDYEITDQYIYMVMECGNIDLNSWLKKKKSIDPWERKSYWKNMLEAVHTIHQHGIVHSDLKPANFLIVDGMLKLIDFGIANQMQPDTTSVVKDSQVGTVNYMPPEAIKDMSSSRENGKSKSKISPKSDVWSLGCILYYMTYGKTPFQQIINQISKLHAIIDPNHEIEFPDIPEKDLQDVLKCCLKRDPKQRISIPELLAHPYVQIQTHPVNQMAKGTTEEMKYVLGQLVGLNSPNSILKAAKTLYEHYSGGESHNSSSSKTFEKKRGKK

[38] = molecular target: Non-receptor tyrosine-protein kinase TYK2 (Homo sapiens) (UniProt P29597); details: Compound concentration 1000.0 nM
[39] = molecular target: Phosphatidylinositol 3-kinase catalytic subunit type 3 (Homo sapiens) (UniProt Q8NEB9); details: Compound concentration 1000.0 nM
[40] = molecular target: Mitogen-activated protein kinase kinase kinase 19 (Homo sapiens) (UniProt Q56UN5); details: Compound concentration 1000.0 nM
[41] = molecular target: Histamine H1 receptor (Homo sapiens) (UniProt P35367); details: Compound concentration 10.0 uM
[42] = molecular target: Glucocorticoid receptor (Homo sapiens) (UniProt P04150); details: Compound concentration 10.0 uM
[43] = molecular target: Muscarinic acetylcholine receptor M4 (Homo sapiens) (UniProt P08173); details: Compound concentration 10.0 uM

O=C(NCc1ncc(C(F)(F)F)cc1Cl)c1ccc2c(c1)C1(CCS(=O)(=O)CC1)[C@H](C1CC1)N2S(=O)(=O)c1ccc(F)cc1 [BAY-784]
inhibition [1]: 2%
inhibition [2]: 4%
inhibition [3]: 27%
residual activity [4]: 91%
residual activity [5]: 94%
residual activity [6]: 98%
residual activity [7]: 98%
residual activity [8]: 93%
residual activity [9]: 100%
residual activity [10]: 100%
residual activity [11]: 95%
residual activity [12]: 97%
residual activity [13]: 97%
residual activity [14]: 100%
residual activity [15]: 100%
residual activity [16]: 100%
residual activity [17]: 54%
residual activity [18]: 100%
residual activity [19]: 100%
residual activity [20]: 100%
residual activity [21]: 89%
residual activity [22]: 100%
residual activity [23]: 100%
residual activity [24]: 92%
residual activity [25]: 89%
residual activity [26]: 78%
residual activity [27]: 94%
residual activity [28]: 100%
residual activity [29]: 93%
residual activity [30]: 77%
residual activity [31]: 69%
residual activity [32]: 93%
residual activity [33]: 99%
residual activity [34]: 72%
residual activity [35]: 100%
residual activity [36]: 87%
residual activity [37]: 78%
residual activity [38]: 92%
residual activity [39]: 86%
residual activity [40]: 73%
inhibition [41]: 24.6%
inhibition [42]: 13%
inhibition [43]: 2%

O=C(NCc1ncc(C(F)(F)F)cc1Cl)c1ccc2c(c1)C1(CCS(=O)(=O)CC1)[C@@H](C1CC1)N2S(=O)(=O)c1ccc(F)cc1 [BAY-786]
residual activity [4]: 94%
residual activity [5]: 87%
residual activity [6]: 72%
residual activity [7]: 73%
residual activity [8]: 85%
residual activity [9]: 92%
residual activity [10]: 84%
residual activity [11]: 90%
residual activity [12]: 69%
residual activity [13]: 96%
residual activity [14]: 100%
residual activity [15]: 70%
residual activity [16]: 89%
residual activity [17]: 94%
residual activity [18]: 100%
residual activity [19]: 100%
residual activity [20]: 87%
residual activity [21]: 88%
residual activity [22]: 95%
residual activity [23]: 65%
residual activity [24]: 77%
residual activity [25]: 90%
residual activity [26]: 78%
residual activity [27]: 92%
residual activity [28]: 85%
residual activity [29]: 76%
residual activity [30]: 77%
residual activity [31]: 72%
residual activity [32]: 72%
residual activity [33]: 100%
residual activity [34]: 96%
residual activity [35]: 95%
residual activity [36]: 97%
residual activity [37]: 100%
residual activity [38]: 46%
residual activity [39]: 89%
residual activity [40]: 69%
inhibition [41]: 8.01%
